Test results as given in article PMC8778187, “A New Oxygen Containing Pyclen-Type Ligand as a Manganese(II) Binder for MRI and ^52Mn PET Applications: Equilibrium, Kinetic, Relaxometric, Structural and Radiochemical Studies” (Molecules, 2022).

Columns and labels:
[1] = Serum stability in Seronorm followed by r1p relaxation rates; assay type: in vitro ADME, human
Protocol: Serum “stability” of the [Mn(3,9-OPC2A)] chelate: during MRI investigations, the CAs are injected into the vein of the patients and, following their injection, the complexes can meet with different proteins present in the blood serum, which are known to bind the essential metal ions in relatively strong manner. Therefore, the plasma proteins can potentially initiate transmetalation/transchelation reactions, especially in the case of Mn(II) complexes whose thermodynamic stability is lower than the stability of the chelates formed with essential metal ions, such as Zn(II) or Cu(II). What is more, for some Mn(II) complexes, depending upon the stability constants, of course, the Ca(II) ions present at high concentrations in the serum can initiate the dissociation of the complex, as in the case of [Mn(EGTA)]^2^−, [Mn(BAPTA)]^2^−, or [Mn(CaM)], for instance. In nuclear medicine, serum “stability” studies are routinely performed, in order to access the integrity of the chelates in the given competitive media.
The serum stability of the Mn(II) complexes was studied by following the r1p relaxation rates of the complex over time, using 1.0 mM solutions in SeronormTM (Seronorm = commercially available lyophilized human blood serum, Sero, Stasjonsveien, Norway) at pH = 7.43 and 25 °C.

[2] = Stability and protonation constants of Zn(II) complexes by pH-potentiometry; assay type: physicochemical; conditions: Zn^2+ complex; T = 25 °C, I = 0.15 M NaCl
Protocol: (§1) The stability and protonation constants of the metal complexes formed with H2OPC2A were determined by pH-potentiometric titrations, but, for the Cu(II) complex, UV-Vis spectrophotometric measurements were also carried out to supplement the pH-potentiometric titration data (Figures S21 and S22, Supporting Information).
(§2) Metal stock solutions were prepared from the highest analytical grade chemicals, and their concentrations were determined by complexometric titration with standardized Na2H2EDTA and eriochrome black T indicator in the presence of ascorbic acid, and potassium hydrogen tartrate for MnCl2, murexide indicator for CaCl2 and CuCl2, eriochrome black T for MgCl2 and xylenol orange in the presence of hexamethylenetetramine for the solution of ZnCl2. The concentration of the ligand stock solution was determined by pH-potentiometric titrations. The protonation constants of the ligand were determined by the pH potentiometric titrations with 0.15 M NaOH, using 0.0025 M ligand solutions. The ionic strength was set to 0.15 M by using NaCl. The titrated samples (starting volume of 6 mL) were stirred mechanically, and thermostated at 25 °C by a circulating water bath (±0.1 °C). […]
(§3) To avoid the effect of CO2, N2 gas was bubbled through the solutions during the titrations process. […] For the calibration of the pH meter, KH-phtalate (pH = 4.005) and borax (pH = 9.177) buffers were used, and the H^+ ion concentrations were calculated from the measured pH values by applying the method proposed by Irving et al.. A solution of approximately 0.01 M HCl was titrated with a 0.15 M NaOH solution (0.15 or 1.00 M NaCl), and the differences between the measured and calculated pH values (for the points with pH < 2.4) were used to calculate the (H^+) from the pH values measured in the titration experiments. […] The stability constants of the metal complexes (except for Cu(II)) were determined using the direct pH-potentiometric method, by titrating samples with 1:1 metal-to-ligand ratios (the number of fitted data pairs were between 127–212), allowing 1 min for the sample equilibration to occur. […]

[3] = Stability and protonation constants of Cu(II) complexes by pH-potentiometry and UV-Vis spectrophotometry; assay type: physicochemical; conditions: Cu^2+ complex, T = 25 °C, I = 0.15 M NaCl
Protocol: as §1, §2, §3

[4] = Stability and protonation constants of Mg(II) complexes by pH-potentiometry; assay type: physicochemical; conditions: Mg^2+ complex; T = 25 °C, I = 0.15 M NaCl
Protocol: as §1
as §2, with “NaCl.” for “NaCl. The titrated samples (starting volume of 6 mL) were stirred mechanically, and thermostated at 25 °C by a circulating water bath (±0.1 °C).”
To avoid the effect of CO2, N2 gas was bubbled through the solutions during the titrations process. […] For the calibration of the pH meter, KH-phtalate (pH = 4.005) and borax (pH = 9.177) buffers were used, and the H^+ ion concentrations were calculated from the measured pH values by applying the method proposed by Irving et al.. […]

| time over which the relaxation rate remained constant in Seronorm ([1]; 1.0 mM complex, pH = 7.43, 25 °C, negligible dissociation) | r1p in Seronorm solution ([1]; 1.41 T, 25 °C) [mM⁻¹ s⁻¹] | log KMnHL [2] | log KMnL [2] | log KMnLOH [2] | log KMnLOH [3] | log KMnHL ([3]; footnote g) | log KMnL ([3]; footnote g) | log KMgL (stability constant of the Mg(II) complex) [4] | Structure (SMILES) |
| --- | --- | --- | --- | --- | --- | --- | --- | --- | --- |
| at least 80 h | 5.09 | – | – | – | – | – | – | – | O=C([O-])CN1CCOCCN(CC(=O)[O-])Cc2cccc(n2)C1.[Mn+2] [[Mn(3,9-OPC2A)]] |
| – | – | 2.08(3) | 14.81(1) | 10.95(2) | 10.50(5) | 1.92(4) ^g | 18.41(4) ^g | 7.02(1) | O=C(O)CN1CCOCCN(CC(=O)O)Cc2cccc(n2)C1 [H23,9-OPC2A, 6-Oxa-3,9,15-triazabicyclo(9.3.1)pentadeca-1(15),11,13-triene-3,9-diacetic acid] |
